The test system of this experiment is adipose cells of rats. The experiment is described as follows: Evaluation of the sugar-transporting activity (2-[14C(U)]-deoxy-D-glucose incorporation). Format: cell-based. The note with it: rat adipose cells; for activation at 100 µg/mL: 100 μg/ml of each compound, evaluated on the basis of the reinforcing effect of insulin (100 nM). On the procedure:
After the decapitation and venesection of 6 male Wistar rats (body weight: 150 to 200 g), an incision was made in the abdomen of each rat to extract 6 g in total of epididymal adipose tissues. The tissues were finely cut into 2 mm×2 mm pieces in 6 ml of KRH (Krebs-Ringer Hepes, composition: 130 mM of sodium chloride, 4.7 mM of potassium chloride, 1.2 mM of potassium dihydrogenphosphate, 1.2 mM of magnesium sulfate, 1 mM of calcium chloride and 25 mM of Hepes, pH=7.6) containing 5% of BSA (bovine serum albumin). 24 mg of collagenase (type I) was added thereto and the digestion treatment was conducted for about 40 minutes to obtain about 6 ml of isolated adipose cells. The collagenase was removed by the buffer exchange. 2% BSA/KRH solution was added to the residue for the re-suspension to obtain 45 ml of an adipose cell suspension.
The sugar-transporting activity of the compounds of the present invention was evaluated with reference to a method described in a literature [Annual Review of Biochemistry, Vol. 55, p. 1059 (1986)]. In the test, 200 μl of the adipose cell suspension was poured in each polystyrene test tube, 100 μl of the solution of the test substance (by dilution of 10 mg/ml substance dimethyl sulfoxide solution with KRH) was added thereto, and the obtained mixture was shaken and then cultured at 37° C. for 30 minutes.
The sugar-transporting activity was evaluated by measuring the quantity of 2-[^14C(U)]-deoxy-D-glucose incorporated per a unit time. Namely, 2-[^14C(U)]-deoxy-D-glucose was added to the adipose cell suspension after the pre-culture (the final concentration: 0.5 μCi/sample). 5 minutes after, cytochalasin B (final concentration: 10 μM) was added to the mixture to terminate the sugar transportation. After forming a dinonyl phthalate layer, the obtained mixture was centrifuged to separate the adipose cells from the buffer. The quantity of 2-[^14C(U)]-deoxy-D-glucose contained in the adipose cell layer was determined with a liquid scintillation counter to determine the quantity of the incorporated sugar. In this evaluation system, when insulin (100 nM) having the effect of increasing the sugar transportation was used, the effect was about 7 times as high as that obtained in the insulin-free control group.
The results of the evaluation of the sugar-transporting activity obtained by using 100 μg/ml of each compound of the present invention are shown in Table 6. The sugar transporting activity in Table 6 was evaluated on the basis of the reinforcing effect of insulin (100 nM). […] The symbols in Table 6 are as follows: • No: Example No., and • A: sugar transporting activity.
The results of the evaluation of the sugar-transporting activity obtained by using each compound of the present invention are shown in Table 7. The sugar transporting activity in Table 7 was determined in terms of the concentration (EC50: μg/ml) of a test compound, having a reinforcing effect corresponding to 50% on the basis of the reinforcing effect of insulin having a reinforcing effect of 100%.

The mark [1] stands for this setting: concentration having a reinforcing effect corresponding to 50% of the reinforcing effect of insulin (100%).

In brackets after ≈: the same amount, converted by molar mass.

In the case of `CC(=O)N1[C@@H]2CCCC[C@H]2NC2=C(C(=O)NC2)[C@H]1c1ccccc1OC(C)C` [Example 98], the “A: sugar transporting activity (EC50)” value under setting [1] is 14 µg/mL.
Turning to `COc1ccccc1[C@@H]1C2=C(CNC2=O)N[C@@H]2CCCC[C@H]2N1C(=O)c1cnccn1` [Example 79], under setting [1], the “A: sugar transporting activity (EC50)” value was found to be 8.6 µg/mL.
With `CCOc1ccccc1[C@@H]1C2=C(CNC2=O)N[C@@H]2CCCC[C@H]2N1C(=O)CCc1nccs1` [Example 172], the “A: sugar transporting activity (EC50)” value under setting [1] worked out at 0.060 µg/mL.
On the same count and under the same terms, the result for `CCOCC(=O)N1[C@@H]2CCCC[C@H]2NC2=C(C(=O)NC2)[C@H]1c1ccccc1OCC` [Example 94] reads 4 µg/mL.
Take `O=C1NCC2=C1C(c1ccc3c(c1)Cc1ccccc1-3)Nc1ccccc1N2` (stereo not shown) [Example 9]: the activation at 100 µg/mL was 40 to 70%.
Turning to `CCOCC(=O)N1[C@@H]2CCCC[C@H]2NC2=C(C(=O)NC2)[C@H]1c1ccccc1` [Example 155], under setting [1], the “A: sugar transporting activity (EC50)” value came to 2.7 µg/mL.
`O=C1NCC2=C1C(c1cnc(-c3ccccc3)nc1)Nc1ccccc1N2` (stereo not shown) [Example 34] had an activation at 100 µg/mL of 20 to 40%.
The same measure, in the same setting: the figure for `CC(=O)N1c2ccccc2NC2=C(C(=O)NC2)C1c1ccc(Br)cc1` (stereo not shown) [Example 43] is 40 to 70%.
For `O=C1NCC2=C1[C@@H](c1ccccc1OC(F)(F)F)N(C(=O)CCc1nccs1)[C@@H]1CCCC[C@H]1N2` [Example 171], the “A: sugar transporting activity (EC50)” value under setting [1] is 0.070 µg/mL.
Still for that read-out and setting: the result for `COc1ccccc1[C@@H]1C2=C(CNC2=O)N[C@@H]2CCCC[C@H]2N1C(C)=O` [Example 45] reads 1.3 µg/mL.
Molecule `O=C1NCC2=C1C(c1ccc(OCC34CC5CC(CC(C5)C3)C4)cc1)Nc1ccccc1N2` (stereo not shown) [Example 14] yielded an activation at 100 µg/mL not below 70%.
For the molecule `CSc1ccccc1[C@@H]1C2=C(CNC2=O)N[C@@H]2CCCC[C@H]2N1C(=O)CCc1nccs1` [Example 173], under setting [1], the “A: sugar transporting activity (EC50)” value was found to be 0.060 µg/mL.
The same measure, in the same setting: the figure for `COC(=O)N1[C@@H]2CCCC[C@H]2NC2=C(C(=O)NC2)[C@H]1c1ccccc1OC` [Example 80] is 6 µg/mL.
Consider `O=C1NCC2=C1[C@@H](c1ccc(OCc3ccccc3)cc1O)N[C@@H]1CCCC[C@H]1N2` [Example 38], for which the activation at 100 µg/mL was not below 70%.
In general, EC50 refers to the concentration needed to bring the measured effect to its halfway point. Low values mean greater potency, high ones weaker potency. Take `CC(=O)N1[C@@H]2CCCC[C@H]2NC2=C(C(=O)NC2)[C@H]1c1ccc(Br)s1` [Example 180]: under setting [1], the EC50 was 19 µg/mL (≈ 46.3 µM).
In the case of `CCOCC(=O)N1[C@@H]2CCCC[C@H]2NC2=C(C(=O)NC2)[C@H]1c1ccccc1OCc1ccccc1` [Example 102], the “A: sugar transporting activity (EC50)” value under setting [1] was found to be 4 µg/mL.
For `CCNC(=O)N1[C@@H]2CCCC[C@H]2NC2=C(C(=O)NC2)[C@H]1c1ccccc1OCC` [Example 97], under setting [1], the “A: sugar transporting activity (EC50)” value came out at 12 µg/mL.
Molecule `O=C1NCC2=C1C(c1ccc(-c3ccccc3)cc1)Nc1ccccc1N2` (stereo not shown) [Example 7] gave an activation at 100 µg/mL of 40 to 70%.
`CC(=O)N1[C@@H]2CCCC[C@H]2NC2=C(C(=O)NC2)[C@H]1c1ccccc1O` [Example 105]: under setting [1], the “A: sugar transporting activity (EC50)” value came to 3.7 µg/mL.
On the same count and under the same terms, the result for `CCOc1ccccc1[C@@H]1C2=C(CNC2=O)N[C@@H]2CCCC[C@H]2N1C(C)=O` [Example 87] reads 15 µg/mL; that for `COc1ccccc1[C@@H]1C2=C(CNC2=O)N[C@@H]2CCCC[C@H]2N1C(=O)C(F)(F)C(F)(F)F` [Example 50], 9.5 µg/mL.
Regarding `O=C1NCC2=C1C(c1ccc(C#Cc3ccccc3)cc1)Nc1ccccc1N2` (stereo not shown) [Example 6], the activation at 100 µg/mL was 40 to 70%.
Still for that read-out and setting: the result for `CCCCOc1ccc(C2Nc3ccccc3NC3=C2C(=O)NC3)cc1` (stereo not shown) [Example 10] reads 20 to 40%; that for `COc1ccccc1[C@H]1N[C@@H]2CCCC[C@H]2NC2=C1C(=O)NC2` [Example 39], not below 70%; that for `O=C1NCC2=C1C(c1ccc(OCCC3CCCCC3)cc1)Nc1ccccc1N2` (stereo not shown) [Example 16], 40 to 70%.
Same read-out and setting: the figure for `CN1C2=C(C(=O)NC2)C(c2ccc(Br)cc2)Nc2ccccc21` (stereo not shown) [Example 44] is 20 to 40%.
Regarding `CCOCC(=O)N1[C@@H]2CCCC[C@H]2NC2=C(C(=O)NC2)[C@H]1c1ccccc1Br` [Example 137], under setting [1], the “A: sugar transporting activity (EC50)” value was determined as 8.6 µg/mL.
Same read-out and setting: the figure for `O=C1NCC2=C1[C@@H](c1ccccc1Cl)N(C(=O)CC(F)(F)F)[C@@H]1CCCC[C@H]1N2` [Example 143] is 0.5 µg/mL.
Take `CCCCCCOc1ccc(C2Nc3ccccc3NC3=C2C(=O)NC3)c(OC)c1` (stereo not shown) [Example 27]: the activation at 100 µg/mL was 40 to 70%.
Consider `COc1ccc([C@@H]2C3=C(CNC3=O)N[C@@H]3CCCC[C@H]3N2C(C)=O)c(OC)c1` [Example 115], for which the “A: sugar transporting activity (EC50)” value under setting [1] was determined as 10 µg/mL.
Turning to `CCOc1ccccc1[C@@H]1C2=C(CNC2=O)N[C@@H]2CCCC[C@H]2N1C(=O)CC` [Example 88], the “A: sugar transporting activity (EC50)” value under setting [1] stood at 1.9 µg/mL.
Still for that read-out and setting: the result for `CCOC(=O)N1[C@@H]2CCCC[C@H]2NC2=C(C(=O)NC2)[C@H]1c1ccccc1OC` [Example 81] reads 4.2 µg/mL.
On the same count and under the same terms, the figure for `CCCC(=O)N1[C@@H]2CCCC[C@H]2NC2=C(C(=O)NC2)[C@H]1c1ccccc1Cl` [Example 142] is 4 µg/mL.
`O=C1NCC2=C1C(c1ccc(OCc3ccccc3)cc1)Nc1ccccc1N2` (stereo not shown) [Example 1]: the activation at 100 µg/mL was 40 to 70%.
With `CSc1ccccc1[C@@H]1C2=C(CNC2=O)N[C@@H]2CCCC[C@H]2N1C(=O)CO` [Example 164], the “A: sugar transporting activity (EC50)” value under setting [1] came out at 2 µg/mL.
`COC(=O)CCC(=O)N1[C@@H]2CCCC[C@H]2NC2=C(C(=O)NC2)[C@H]1c1ccccc1OC` [Example 60]: the “A: sugar transporting activity (EC50)” value under setting [1] turned out to be 4.8 µg/mL.
The same measure, in the same setting: the figure for `COc1ccccc1[C@@H]1C2=C(CNC2=O)N[C@@H]2CCCC[C@H]2N1C(=O)CCSC` [Example 71] is 2.6 µg/mL; for `COC(=O)CC(=O)N1[C@@H]2CCCC[C@H]2NC2=C(C(=O)NC2)[C@H]1c1ccccc1Br` [Example 136] it is 1.5 µg/mL; for `CCC(=O)N1[C@@H]2CCCC[C@H]2NC2=C(C(=O)NC2)[C@H]1c1ccccc1` [Example 154] it is 1.5 µg/mL.
Still for that read-out and setting: the result for `COc1ccccc1[C@@H]1C2=C(CNC2=O)N[C@@H]2CCCC[C@H]2N1C(=O)CC(F)(F)F` [Example 49] reads 0.47 µg/mL; that for `CCOCC(=O)N1[C@@H]2CCCC[C@H]2NC2=C(C(=O)NC2)[C@H]1c1ccccc1F` [Example 150], 2 µg/mL.
In the case of `CC(C)(C)CC(C)(C)c1ccc(C2Nc3ccccc3NC3=C2C(=O)NC3)c(Cl)c1` (stereo not shown) [Example 31], the activation at 100 µg/mL was not below 70%.
`CC(=O)N1[C@@H]2CCCC[C@H]2NC2=C(C(=O)NC2)[C@H]1c1ccc(Br)cc1` [Example 161]: under setting [1], the “A: sugar transporting activity (EC50)” value stood at 17 µg/mL.
Same read-out and setting: the result for `CCc1ccccc1[C@@H]1C2=C(CNC2=O)N[C@@H]2CCCC[C@H]2N1C(=O)OC` [Example 132] reads 4 µg/mL; that for `Cc1ccccc1[C@@H]1C2=C(CNC2=O)N[C@@H]2CCCC[C@H]2N1C(=O)CO` [Example 121], 2.5 µg/mL; that for `CCOCC(=O)N1[C@@H]2CCCC[C@H]2NC2=C(C(=O)NC2)[C@H]1c1ccccc1OC(C)C` [Example 100], 2 µg/mL.
